In one assay the test system is collagen I. Briefly: ELISA measurement of collagen I synthesis (collagen I secreted into the medium) in fibroblast culture, 48 h. It is filed as cell-based, human. The settings on record: for ng collagen I/10^4 cells/48 h: mean±SD, control 2004 ± 132; for ng coll. I/10,000 HF/48 h: control (Asc. 25 μM + DMSO 0.1%) 2466 ± 289. The method, then: An ELISA method is used to measure collagen I synthesis, with and without treatment, on a culture of fibroblasts originating from a face lift performed on a person.
a.1) Fibroblast cultures:
The fibroblasts are cultivated by the explant method up to the point of confluence, at 37° C., in a medium consisting of a mixture of E199-C medium and 10% fetal calf serum, in a humidity-saturated atmosphere containing 5% of CO2.
Then, after detachment with an isotonic solution containing 0.1% of trypsin and 0.02% of EDTA, buffered to pH 7.2, the cells are inoculated into 96-well microplates (FALCON) at a rate of 10^4 cells per well in an E199-C medium containing 2% of serum.
After 24 h this medium is replaced, for 48 h of incubation, with the same medium without serum and containing 25 μM sodium ascorbate (incubation medium), with or without the test products. The products, solubilized in DMSO, are added to the culture medium at different concentrations.
a.2) Assay of collagen I:
The amount of collagen I secreted into the medium after 48 h of incubation with or without the products was determined by means of an ELISA (Enzyme-Linked Immuno Sorbent Assay) test.
The incubation medium is collected and transferred to the wells of a microtiter plate (Nunc Immunoplate) containing protease inhibitors. Incubation for 24 h at 4° C. allows the collagen to adhere to the plastic. The plates are then rinsed with PBS (Phosphate Buffered Saline).
After 24 h of incubation at 4° C. with serum albumin to prevent non-specific antibody-plastic binding, anti-human collagen I rabbit antibodies (Institut Pasteur, Lyon, France) are added over 1.5 h at 22° C. After rinsing with PBS, the bound antibodies are disclosed with anti-rabbit IgG goat antibodies (INTERCHIM, Montlugon, France) conjugated with an alkaline phosphatase, which, in the presence of paranitrophenyl phosphate, will produce a paranitrophenol absorbing at 405 nm.
The optical densities obtained are converted to nanograms of collagen using a calibration curve established under the same experimental conditions with purified human collagen I (Institut Jacques Boy, France).
a.3) Statistical interpretation:
The amounts of collagen (mean±standard deviation) secreted by the treated and untreated cells are compared by means of a Student t test. The significance level is taken as 0.05.
b.1) The protocol described above is applied in order to study the effect of the concentration of ginsenoside R0 on the stimulation of collagen I synthesis.
Table 1 gives the results obtained with compositions respectively containing 0, 1, 2.5 and 10 μg of ginsenoside R0 per ml.
On the technique in general: ELISA stands for enzyme-linked immunosorbent assay.

The next assay concerns collagen III. Briefly: ELISA measurement of collagen III synthesis in fibroblast culture, 72 h. It is filed as cell-based. The settings on record: Homo sapiens, read-out: stimulation of synthesis of collagen III. The method, then: The protocol is the same as that described with collagen I except that the ELISA is directed against collagen III (human) and the culture treatment time is 72 h instead of the 48 h with collagen I.

Molecules are shown by their SMILES. Where two headings read alike, the source gives them in different places.

As for `CC1(C)CC[C@]2(C(=O)O[C@@H]3O[C@H](CO)[C@@H](O)[C@H](O)[C@H]3O)CC[C@]3(C)C(=CC[C@@H]4[C@@]5(C)CC[C@H](O[C@@H]6O[C@H](C(=O)O)[C@@H](O)[C@H](O)[C@H]6O[C@@H]6O[C@H](CO)[C@@H](O)[C@H](O)[C@H]6O)C(C)(C)[C@@H]5CC[C@]43C)[C@@H]2C1` [ginsenoside R0], the activation at 1 µg/mL turned out to be 8% with collagen I (Homo sapiens, Fibroblast, 48 h, Table 1, 1 μg/ml, S: significant at the 0.05 level, read-out: Stimulation of synthesis (collagen I)) and 1% in the assay on collagen I (Homo sapiens, Fibroblast, 48 h, Table 2, 1 μg/ml, Example 1 S (p = 0.021), Example 2 S (p = 0.0006), ginsenoside R0 NS, read-out: % stimulation/control (collagen I)). The activation at 2.5 µg/mL in the assay on collagen I (Homo sapiens, Fibroblast, 48 h, Table 1, 2.5 μg/ml, S: significant at the 0.05 level, read-out: Stimulation of synthesis (collagen I)) was 29%; in the assay with collagen III (2.5 μg/ml), 33%. Besides, the activation at 10 µg/mL in the assay on collagen I (Homo sapiens, Fibroblast, 48 h, Table 1, 10 μg/ml, S: significant at the 0.05 level, read-out: Stimulation of synthesis (collagen I)) worked out at 44%; in the assay with collagen I (Homo sapiens, Fibroblast, 48 h, Table 2, 10 μg/ml, Example 1 S (p = 0.003), Example 2 S (p = 0.0006), ginsenoside R0 S (p = 0.002), read-out: % stimulation/control (collagen I)) it was 66%; in the assay with collagen III (10 μg/ml) it was 81%. Also, the activation at 1.5 µg/mL with collagen I (Homo sapiens, Fibroblast, 48 h, Table 2, 1.5 μg/ml, S (p = 0.024), read-out: % stimulation/control (collagen I)) amounted to 43%. The “ng collagen I/10^4 cells/48 h” value in the assay on collagen I (Table 1, 1 μg/ml) is listed as 2172 ± 88 ng collagen I/10^4 cells/48 h; in the assay with collagen I (Table 1, 2.5 μg/ml), 2599 ± 163 ng collagen I/10^4 cells/48 h; in the assay with collagen I (Table 1, 10 μg/ml) it was 2889 ± 74 ng collagen I/10^4 cells/48 h. The “ng coll. I/10,000 HF/48 h” value is 2482 ± 276 ng coll. I/10,000 HF/48 h in the assay with collagen I (Table 2, 1 μg/ml); 3529 ± 516 ng coll. I/10,000 HF/48 h with collagen I (Table 2, 1.5 μg/ml); 4099 ± 480 ng coll. I/10,000 HF/48 h in the assay on collagen I (Table 2, 10 μg/ml).

The values are drawn from patent US5747538A, “Use of ginsenoside R0 or a plant extract containing same to promote collagen synthesis” (priority 1994, dated 1998).
